Key:
[1] = Stability of VB-201 in Lauroglycol FCC; format: physicochemical; details: over the course of 66 days; data not shown
Description: (§1) VB-201 was also found to be stable in Lauroglycol FCC over the course of 66 days (data not shown).

[2] = Aqueous solubility of VB-201; format: physicochemical; details: at each tested pH: 0.1 M HCl (pH 1), 50 mM phosphate buffers (pH 5 and 7)
Protocol: The aqueous solubility of VB-201 was determined by suspending VB-201 in aqueous solutions of 0.1 M HCl (pH 1) or in 50 mM phosphate buffers (pH 5 and 7). After initial hand mixing, the preparations were further mixed by vortexing and bath sonication to try to bring about dissolution of the drug. Optical microscopy was used to examine for the presence of undissolved material. […] Thus, VB-201′ is relatively water-soluble.

[3] = oral, daily dosages of 80 mg VB-201 per day or less; cited from earlier work
[4] = Solubility of VB-201 in molten PEG6000; format: physicochemical; details: 65° C. to 105° C., 30 hours; no detectable VB-201
Protocol: Nine pieces of caked, non-ground VB-201 were submerged in molten PEG6000 at 65° C. and stirred slowly using a paddle mixer. The mix was held for approximately two hours at this temperature, examined visually for the dissolution state of the VB-201, and three samples of the liquid PEG6000 were then taken for analysis. The temperature was then raised by 10° C. and the process was repeated. The process was repeated in 10° C. steps until the mix reached a final temperature of 105° C. The entire process lasted 30 hours.
After 30 hours and at a temperature of 105° C., the PEG6000 had slowly turned lightly yellow (normal for prolonged heating of PEG6000 in air), yet there was no significant visible dissolution of VB-201 or reduction in size of the VB-201 pieces. After taking the final analytical samples the VB-201 pieces were removed from the melt, dried from PEG6000, and weighed.

[5] = Pharmacokinetic study, single oral dose of 40 mg VB-201 to human subjects; format: in vivo; details: single oral dose 40 mg VB-201, in all subjects
Protocol: Pharmacokinetic studies were performed using two different VB-201 formulations (formulation 10 of Example 13 and formulation 4 of Example 11). Single oral doses of 40 mg VB-201 were administered to 26 human subjects for each formulation, and the VB-201 plasma concentrations were measured for a period of 144 hours after dosing for each subject.

[6] = Solubility of VB-201 in Lauroglycol FCC; format: physicochemical; details: in Lauroglycol FCC (propylene glycol laurate)
Description: as §1

stability in Lauroglycol FCC [1]: stable
aqueous solubility of VB-201 [2]: > 225 mg/gram
VB-201 concentration in molten PEG6000 [4]: < 0.5 mg/gram
time VB-201 plasma concentrations were above the assay limit of quantification [5]: at least 96 hours
solubility of VB-201 in Lauroglycol FCC [6]: at least 255 mg per gram
SMILES: CCCCCCCCCCCCCCCCOCC(COP(=O)([O-])OCC[N+](C)(C)C)OCCCCC(=O)O (stereo not drawn) [VB-201, 1-hexadecyl-2-(4′-carboxybutyl)-glycero-3-phosphocholine]
safety and tolerability [3]: safe, well-tolerated
